Laboratory results published in publication PMC7894572 (Chemmedchem, 2020).
Structures can show the parent of a compound that is named as a salt. Where two headings read alike, the source gives them in different places.

Columns and labels:
SARS‐CoV PL^pro = SARS‐CoV PL^pro (Severe acute respiratory syndrome coronavirus, UniProt P0C6X7); assay: biochemical; format: biochemical
SARS‐CoV‐2 PL^pro = SARS‐CoV‐2 PL^pro (Severe acute respiratory syndrome coronavirus 2, UniProt P0DTD1); assay: biochemical; format: biochemical
[1] = read-out: Percentage inhibition SARS‐CoV‐2 PL^pro
[2] = read-out: Inhibition SARS‐CoV‐2 PL^pro, class (Table 2)
[3] = read-out: Inhibition SARS‐CoV PL^pro, class (Table 1)
[4] = read-out: Inhibition SARS‐CoV‐2 PL^pro, class (Table 1)
[5] = read-out: Inhibition SARS‐CoV PL^pro, class (Table 2)
[6] = read-out: Percentage inhibition SARS‐CoV PL^pro

C[C@@H](NC(=O)c1ccccc1)c1cccc2ccccc12 [Compound 2 c, N ‐[(1R)‐1‐Naphth‐1‐ylethyl]benzamide]
IC50 (SARS‐CoV PL^pro): 62 ± 5 µM | inhibition at 100 µM (SARS‐CoV‐2 PL^pro; [1]): 60% | melting point: 195 °C

COc1ccc2c(c1)CN([C@H](C)c1cccc3ccccc13)C2 [Compound 14 d, 5‐Methoxy‐2‐[(1R)‐1‐naphth‐1‐ylethyl]‐2,3‐dihydro‐1H‐isoindol]
IC50 (SARS‐CoV PL^pro): 14 ± 1 µM | inhibition at 100 µM (SARS‐CoV‐2 PL^pro; [2]): < 50%

Cc1ccccc1NC(=O)C(C)c1cccc2ccccc12 (stereo not drawn) [Compound 11 a, N ‐(2‐Methylphenyl)‐2‐naphth‐1‐ylpropanamide]
inhibition at 100 µM (SARS‐CoV PL^pro; [3]): < 50% | Inhibition of SARS‐CoV‐2 PL^pro, in words (SARS‐CoV‐2 PL^pro): not show inhibitory activity | inhibition at 100 µM (SARS‐CoV‐2 PL^pro; [4]): < 50% | melting point: 151 °C

Cc1ccccc1C(=O)NC(c1ccccc1)c1ccccc1 [Compound 4 c, N ‐(Diphenylmethyl)‐2‐methylbenzamide]
Inhibition of SARS‐CoV PL^pro, in words (SARS‐CoV PL^pro): inactive | inhibition at 100 µM (SARS‐CoV PL^pro; [3]): < 50%

C[C@H](c1cccc2ccccc12)N1Cc2ccc([N+](=O)[O-])cc2C1 [Compound 14 f, 2‐[(1R)‐1‐Naphth‐1‐ylethyl]‐5‐nitro‐2,3‐dihydro‐1H‐isoindole]
Inhibition of SARS‐CoV PL^pro, in words (SARS‐CoV PL^pro): Inactive | inhibition at 100 µM (SARS‐CoV PL^pro; [5]): < 50%

C[C@@H](NC(=O)Cc1ccccc1)c1cccc2ccccc12 [Compound 2 l, N ‐[(1R)‐1‐Naphth‐1‐ylethyl]‐2‐phenylacetamid]
inhibition at 100 µM (SARS‐CoV PL^pro; [6]): 57% | melting point: 130 °C

C[C@@H](NC(=O)C(c1ccccc1)c1ccccc1)c1cccc2ccccc12 [Compound 2 m, (R)‐N‐(1‐(naphthalen‐1‐yl)ethyl)‐2,2‐diphenylacetamide]
Inhibition of SARS‐CoV PL^pro, in words (SARS‐CoV PL^pro): no inhibition | inhibition at 100 µM (SARS‐CoV PL^pro; [3]): < 50% | melting point: 152 °C

Cc1ccccc1C(=O)N[C@@H](C)c1cccc2ccccc12 [Compound 4 d, 2‐Methyl‐N‐[(1S)‐1‐naphth‐1‐ylethyl]benzamide]
inhibition at 100 µM (SARS‐CoV PL^pro; [3]): < 50% | Inhibition of SARS‐CoV‐2 PL^pro, in words (SARS‐CoV‐2 PL^pro): not show inhibitory activity | inhibition at 100 µM (SARS‐CoV‐2 PL^pro; [4]): < 50%

C[C@@H](NC(=O)c1ccccc1Br)c1cccc2ccccc12 [Compound 2 g, 2‐Bromo‐N‐[(1R)‐1‐naphth‐1‐ylethyl]benzamide]
IC50 (SARS‐CoV PL^pro): 11 ± 2 µM | inhibition at 100 µM (SARS‐CoV‐2 PL^pro; [1]): 73% | melting point: 153 °C

Cc1ccccc1C(=O)NC(C)c1ccccc1 (stereo not drawn) [Compound 4 a, 2‐Methyl‐N‐(1‐phenyl)benzamide]
inhibition at 100 µM (SARS‐CoV PL^pro; [3]): < 50%

C[C@@H](c1cccc2ccccc12)N1Cc2ccccc2C1.Cl [Compound 14 i, 2‐[(1S)‐1‐Naphth‐1‐ylethyl]‐2,3‐dihydro‐1H‐isoindol hydrochloride]
Inhibition of SARS‐CoV PL^pro, in words (SARS‐CoV PL^pro): abolished activity | inhibition at 100 µM (SARS‐CoV PL^pro; [5]): < 50% | Inhibition of SARS‐CoV‐2 PL^pro, in words (SARS‐CoV‐2 PL^pro): not show inhibitory activity | inhibition at 100 µM (SARS‐CoV‐2 PL^pro; [2]): < 50%

Cc1ccccc1CN[C@H](C)c1cccc2ccccc12 [Compound 17, (1R)‐N‐(2‐Methylbenzyl)‐1‐naphth‐1‐ylethylamine hydrochloride]
inhibition at 100 µM (SARS‐CoV PL^pro; [6]): 55%

CNS(=O)(=O)c1ccc(C)c(C(=O)N[C@H](C)c2cccc3ccccc23)c1 [Compound 2 t, 2‐Methyl‐5‐(methylsulfamoyl)‐N‐[(1R)‐1‐naphth‐1‐ylethyl]benzamide]
IC50 (SARS‐CoV PL^pro): 4 ± 0.3 µM | inhibition at 100 µM (SARS‐CoV‐2 PL^pro; [1]): 87% | melting point: 184 °C

2‐Methyl‐N‐(naphth‐1‐ylethyl]benzamide [Compound 4 b]
Inhibition of SARS‐CoV PL^pro, in words (SARS‐CoV PL^pro): inactive | Inhibition SARS‐CoV PL^pro, class (Table 1) (SARS‐CoV PL^pro; 100 µM): n.a.^[b] (key: Compounds with inhibitory effect less than 50 % at 100 μM compared to DMSO were labelled as not active (n.a.))

C[C@H](c1cccc2ccccc12)N1Cc2cccc(N)c2C1 [Compound 14 j, 2‐[(1R)‐1‐Naphth‐1‐ylethyl]‐2,3‐dihydro‐1H‐isoindol‐4‐amine]
IC50 (SARS‐CoV PL^pro): 32 ± 2 µM | inhibition at 100 µM (SARS‐CoV‐2 PL^pro; [2]): < 50%

CC(C(=O)Nc1ccc(S(N)(=O)=O)cc1)c1cccc2ccccc12 (stereo not drawn) [Compound 11 c, 2‐Naphth‐1‐yl‐N‐(4‐sulfamoylphenyl)propanamide]
inhibition at 100 µM (SARS‐CoV PL^pro; [3]): < 50% | inhibition at 100 µM (SARS‐CoV‐2 PL^pro; [4]): < 50% | melting point: 206 °C

C[C@H](c1cccc2ccccc12)N1Cc2ccc(O)cc2C1 [Compound 14 l, 2‐[(1R)‐1‐Naphth‐1‐ylethyl]‐2,3‐dihydro‐1H‐isoindol‐5‐ol hydrochloride]
IC50 (SARS‐CoV PL^pro): 4.5 ± 0.4 µM

Cc1cccc2c1CN([C@H](C)c1cccc3ccccc13)C2.Cl [Compound 14 a, 4‐Methyl‐2‐[(1R)‐1‐naphth‐1‐ylethyl]‐2,3‐dihydro‐1H‐isoindol hydrochloride]
inhibition at 10 µM (SARS‐CoV PL^pro; [6]): 45% | inhibition at 100 µM (SARS‐CoV‐2 PL^pro; [2]): < 50% | melting point: 247 °C

C[C@@H](NC(=O)c1ccccc1C(F)(F)F)c1cccc2ccccc12 [Compound 2 d, N ‐[(1R)‐1‐Naphth‐1‐ylethyl]‐2‐(trifluormethyl)benzamide]
inhibition at 100 µM (SARS‐CoV PL^pro; [3]): < 50%

Cc1cc(NS(C)(=O)=O)ccc1C(=O)N[C@H](C)c1cccc2ccccc12 [Compound 2 s, 2‐Methyl‐4‐[(methylsulfonyl)amino]‐N‐[(1R)‐1‐naphth‐1‐ylethyl]benzamide]
IC50 (SARS‐CoV PL^pro): 4.8 ± 0.3 µM | IC50 (SARS‐CoV‐2 PL^pro): 10 ± 1 µM

C[C@@H](NC(=O)c1ccccc1C#N)c1cccc2ccccc12 [Compound 2 e, (R)‐2‐Cyano‐N‐(1‐(naphth‐1‐yl)ethyl)benzamide]
IC50 (SARS‐CoV PL^pro): 18 ± 2 µM | inhibition at 100 µM (SARS‐CoV‐2 PL^pro; [4]): < 50% | melting point: 181 °C

Cc1ccc(N(C)C)cc1C(=O)N[C@H](C)c1cccc2ccccc12 [Compound 2 r, (R)‐5‐(Dimethylamino)‐2‐methyl‐N‐[1‐(naphth‐1‐yl)ethyl]benzamide]
IC50 (SARS‐CoV PL^pro): 4 ± 0.2 µM | IC50 (SARS‐CoV‐2 PL^pro): 10 ± 2 µM

Cc1ccc(NC(=O)OC(C)(C)C)cc1C(=O)N[C@H](C)c1cccc2ccccc12 [Compound 2 q, (R)‐tert‐Butyl (4‐Methyl‐3‐((1‐(naphth‐1‐yl)ethyl)carbamoyl)phenyl) carbamate]
IC50 (SARS‐CoV PL^pro): 4.6 ± 0.4 µM

C[C@@H](NC(=O)C1CCCCC1)c1cccc2ccccc12 [Compound 2 j, N ‐[(1R)‐1‐Naphth‐1‐ylethyl]cyclohexanecarboxamide]
Inhibition of SARS‐CoV PL^pro, in words (SARS‐CoV PL^pro): inactive | inhibition at 100 µM (SARS‐CoV PL^pro; [3]): < 50% | melting point: 170 °C

Cc1cc(NC(=O)OC(C)(C)C)ccc1C(=O)N[C@H](C)c1cccc2ccccc12 [Compound 2 o, (R)‐tert‐Butyl(3‐Methyl‐4‐((1‐(naphth‐1‐yl)ethyl)carbamoyl)phenyl)carbamate]
IC50 (SARS‐CoV PL^pro): 1.6 ± 0.3 µM

C[C@H](c1cccc2ccccc12)N1Cc2cccc([N+](=O)[O-])c2C1 [Compound 14 e, 2‐[(1R)‐1‐Naphth‐1‐ylethyl]‐4‐nitro‐2,3‐dihydro‐1H‐isoindole]
Inhibition of SARS‐CoV PL^pro, in words (SARS‐CoV PL^pro): Inactive | inhibition at 10 µM (SARS‐CoV PL^pro; [6]): < 50%

c1ccc2c(c1)CN(Cc1cccc3ccccc13)C2 [Compound 14 c, 2‐(Naphth‐1‐ylmethyl)‐2,3‐dihydro‐1H‐isoindol hydrochloride]
inhibition at 100 µM (SARS‐CoV PL^pro; [5]): < 50%

C[C@@H](NC(=O)C(C)(C)C)c1cccc2ccccc12 [Compound 2 k]
Inhibition of SARS‐CoV PL^pro, in words (SARS‐CoV PL^pro): inactive | inhibition at 100 µM (SARS‐CoV PL^pro; [3]): < 50% | melting point: 131 °C

Cc1ccccc1C(=O)NC(CO)c1cccc2ccccc12 (stereo not drawn) [Compound 8, N ‐(2‐Hydroxy‐1‐naphth‐1‐ylethyl)‐2‐methylbenzamide]
Inhibition of SARS‐CoV PL^pro, in words (SARS‐CoV PL^pro): inactivity | inhibition at 100 µM (SARS‐CoV PL^pro; [3]): < 50%

Cc1ccccc1C(=O)N[C@H](C)c1cccc2ccccc12 [Compound 2 a, 2‐Methyl‐N‐[(1R)‐naphth‐1‐ylethyl]benzamide, reference compound]
IC50 (SARS‐CoV‐2 PL^pro): 6.9 ± 0.7 µM
